The test system of series [1] is Actinomyces viscosus. The series can be described thus: In vitro antibacterial activity against Actinomyces viscosus M-100-2000. In kind it is functional.
A short description of series [2]: Distribution coefficient between octanol and aqueous phase at pH7.2. It is filed as physicochemical. The conditions noted are these: pH 7.2.
The nature of series [3]: Observed inhibitory activity against various Actinomycetes strains. As to conditions: actinomycetaceae.
Series [4] in a line: Partition coefficient is determined in octanol/buffer solution. In kind it is physicochemical.
A short description of series [5]: Dissociation constant is the negative logarithm of the equilibrium coefficient of the neutral and charged forms of the compound. In kind it is physicochemical.
For series [6], the system named is Actinomyces israelii. The series can be described thus: In vitro antibacterial activity against Actinomycetes israelii 28360. In kind it is functional.
Series [7] deals with Actinomyces naeslundii. The series can be described thus: In vitro antibacterial activity against Actinomycetes naeslundii 12104. In kind it is functional.
Series [8] deals with Actinomyces naeslundii. Briefly: In vitro antibacterial activity against Actinomycetes naeslundii 8115. In kind it is functional.
Series [9] has as its system Actinomyces israelii. Briefly: In vitro antibacterial activity against Actinomycetes israelii 10048. In kind it is functional.
The test system of series [10] is Actinomyces viscosus. Briefly: In vitro antibacterial activity against Actinomycetes viscosus T14V. In kind it is functional.
Series [11] concerns Actinomyces israelii. The series can be described thus: In vitro antibacterial activity against Actinomycetes israelii 12836. In kind it is functional.

In brackets after ≈: the same amount, converted by molar mass.

Results on 27 molecules are retold here after ChEMBL document CHEMBL1121855, “Potential salicylamide antiplaque agents: in vitro antibacterial activity against Actinomyces viscosus” (J Med Chem, 1981).

For `CCCCCCCCc1ccc(O)c(C(=O)Nc2ccc(Br)cc2)c1`, inhibition of growth with Actinomyces viscosus [1] (MIC) required 0.2 µg/mL (≈ 0.495 µM).

`CCCCc1ccc(O)c(C(=O)Nc2ccc(Br)cc2)c1`: in [2], the pH-dependent lipophilicity (logD) was 5.88. Further, in series [3], the “Log 1/MIC” value is 6.54. For the same molecule, the logP in series [4] (octanol/buffer, read-out: logP) was determined as 6.09. This molecule also displayed a pKa in series [5] of 7.35. Further, the minimal inhibitory concentration (MIC) in the series on Actinomyces viscosus [1] came out at 0.1 µg/mL (≈ 0.287 µM).

`O=C(Nc1nccs1)c1cc(Br)cc(Br)c1O` yielded an MIC in the series with Actinomyces viscosus [1] of 95 µg/mL (≈ 251 µM).

On to `O=C(Nc1cccc(C(F)(F)F)c1)c1cc(Br)cc(Br)c1O` [FLUOROSALAN], for which the MIC in the series on Actinomyces israelii [6] stood at 0.1 µg/mL (≈ 0.228 µM); in the series with Actinomyces naeslundii [7] it was 1 µg/mL (≈ 2.28 µM); in the series on Actinomyces naeslundii [8], 0.5 µg/mL (≈ 1.14 µM); against Actinomyces viscosus [1] it was 1 µg/mL (≈ 2.28 µM); with Actinomyces israelii [9], 0.5 µg/mL (≈ 1.14 µM); against Actinomyces viscosus [10] it was 0.5 µg/mL (≈ 1.14 µM). In the series with Actinomyces israelii [11], this molecule registered an MIC of 0.5 µg/mL (≈ 1.14 µM).

As to `CCCCCCCCCCCCCC(=O)c1ccc(O)c(C(=O)Nc2ccc(Br)cc2)c1`, the MIC with Actinomyces viscosus [1] is more than 5 µg/mL.

In the series on Actinomyces viscosus [1], `Cc1cccnc1NC(=O)c1cc(Br)cc(Br)c1O` yielded an MIC of more than 155 µg/mL.

On to `CCCc1ccc(O)c(C(=O)Nc2ccc(Br)cc2)c1`, for which the logD in series [2] is 5.38. Also, the “Log 1/MIC” value in series [3] is on record as 5.35. The logP in series [4] (octanol/buffer, read-out: logP) was 5.61. The molecule further came in with a pKa in [5] of 7.35. The molecule further displayed an MIC in the series with Actinomyces viscosus [1] of 1.5 µg/mL (≈ 4.49 µM).

In turn, `CCCCCCCCCC(=O)c1ccc(O)c(C(=O)NCc2ccc(Cl)c(Cl)c2)c1` had an MIC in the series with Actinomyces viscosus [1] of 0.5 µg/mL (≈ 1.11 µM).

`CCCCCCc1ccc(O)c(C(=O)Nc2nc3ccccc3s2)c1` came in with an MIC against Actinomyces viscosus [1] of more than 20 µg/mL.

In the case of `O=C(Nc1ccc(Br)cc1)c1ccccc1O`, the logD in [2] was determined as 3.78. In addition, the “Log 1/MIC” value in [3] turned out to be 4.47. Moreover, the logP in series [4] (octanol/buffer, read-out: logP) was 4.13. In addition, the pKa in series [5] stood at 7.1. The minimal inhibitory concentration (MIC) with Actinomyces viscosus [1] is 10 µg/mL (≈ 34.2 µM).

In the series on Actinomyces viscosus [1], `O=C(Nc1nc2cc(Cl)ccc2[nH]1)c1cc(Br)cc(Br)c1O` gave an MIC of 4 µg/mL (≈ 8.98 µM).

With `Cc1ccc(O)c(C(=O)NCCCCCCNC(=O)c2cc(C)ccc2O)c1`, in the series on Actinomyces viscosus [1], the MIC was more than 20 µg/mL.

Take `CCCCCCCCCC(=O)c1ccc(O)c(C(=O)Nc2nc3ccccc3s2)c1`: the MIC with Actinomyces israelii [6] was more than 10 µg/mL; against Actinomyces naeslundii [7], more than 10 µg/mL; in the series with Actinomyces naeslundii [8], more than 10 µg/mL; with Actinomyces viscosus [1], 0.5 µg/mL (≈ 1.18 µM); in the series with Actinomyces israelii [9], 5 µg/mL (≈ 11.8 µM); with Actinomyces viscosus [10], 10 µg/mL (≈ 23.6 µM). The same molecule came in with an MIC against Actinomyces israelii [11] of more than 10 µg/mL.

Molecule `CCC(=O)c1ccc(O)c(C(=O)Nc2ccc(Br)cc2)c1` showed a logD in [2] of 3.38. Besides, the “Log 1/MIC” value in series [3] was 4.43. Besides, in series [4] (octanol/buffer, read-out: logP), the logP is 4.52. Further, in series [5], the pKa was determined as 6.1. For the same molecule, the MIC in the series on Actinomyces viscosus [1] worked out at 13 µg/mL (≈ 37.3 µM).

The molecule `O=C(Nc1nc2c(Cl)cccc2s1)c1cc(Br)cc(Br)c1O` came in with an MIC in the series with Actinomyces viscosus [1] of 1.7 µg/mL (≈ 3.68 µM).

Take `COc1ccc(O)c(C(=O)Nc2ccc(Br)cc2)c1`: in the series on Actinomyces viscosus [1], the MIC was more than 25 µg/mL.

Regarding `O=C(NCCCCCCNC(=O)c1ccccc1O)c1ccccc1O`, the MIC against Actinomyces viscosus [1] is more than 20 µg/mL.

In the series on Actinomyces viscosus [1], `CCCCc1ccc(O)c(C(=O)Nc2cccc(C(F)(F)F)c2)c1` yielded an MIC of 0.5 µg/mL (≈ 1.48 µM).

With `O=C(Nc1nc2cc(Cl)ccc2o1)c1cc(Br)cc(Br)c1O`, the MIC against Actinomyces viscosus [1] is more than 35 µg/mL.

In turn, `CCCCCCCCCCCC(=O)c1ccc(O)c(C(=O)Nc2ccc([N+](=O)[O-])cc2)c1` yielded an MIC against Actinomyces viscosus [1] of 0.05 µg/mL (≈ 0.113 µM).

As to `CCCCCCCCCCCC(=O)c1ccc(O)c(C(=O)NCc2ccc(Cl)c(Cl)c2)c1`, the MIC in the series with Actinomyces viscosus [1] amounted to 5 µg/mL (≈ 10.5 µM).

`O=C(Nc1ccc(Br)cc1)c1cc([N+](=O)[O-])ccc1O` gave a logD in series [2] of 3.16. Further, the “Log 1/MIC” value in series [3] is on record as 5.05. For the same molecule, the logP in series [4] (octanol/buffer, read-out: logP) was 4.58. This molecule also registered a pKa in [5] of 5.8. This molecule had an MIC in the series on Actinomyces viscosus [1] of 3 µg/mL (≈ 8.9 µM).

For `Cc1ccc(O)c(C(=O)Nc2ccc(Br)cc2)c1`, the logD in series [2] worked out at 4.38. The “Log 1/MIC” value in series [3] turned out to be 5.09. Also, the logP in series [4] (octanol/buffer, read-out: logP) was found to be 4.61. The pKa in series [5] turned out to be 7.35. The MIC in the series on Actinomyces viscosus [1] was 2.5 µg/mL (≈ 8.17 µM); in the series with Actinomyces viscosus [10] it was 5.2 µg/mL (≈ 17 µM).

For `O=C(NCCCCCCNC(=O)c1cc(Br)ccc1O)c1cc(Br)ccc1O`, the MIC against Actinomyces viscosus [1] was more than 20 µg/mL.

As for `CCCCCCCC(=O)c1ccc(O)c(C(=O)Nc2cccc(C(F)(F)F)c2)c1`, in the series on Actinomyces viscosus [1], the MIC is 0.5 µg/mL (≈ 1.23 µM).

In series [2], `CCCCCCCCCCCC(=O)c1ccc(O)c(C(=O)Nc2ccc(Br)cc2)c1` displayed a logD of 7.88. The “Log 1/MIC” value in series [3] came out at 7.37. This molecule displayed a logP in series [4] (octanol/water) of 9.02. In addition, the pKa in series [5] was found to be 6.1. Moreover, the MIC was 0.5 µg/mL (≈ 1.05 µM) against Actinomyces israelii [6]; 0.5 µg/mL (≈ 1.05 µM) in the series on Actinomyces naeslundii [7]; 1 µg/mL (≈ 2.11 µM) with Actinomyces naeslundii [8]; 0.02 µg/mL (≈ 0.0422 µM) against Actinomyces viscosus [1]; more than 5 µg/mL against Actinomyces israelii [9]; 0.5 µg/mL (≈ 1.05 µM) against Actinomyces viscosus [10]. This molecule came in with an MIC against Actinomyces israelii [11] of more than 5 µg/mL.

Take `CCCCCCc1cc(C(=O)Nc2ccc(Br)cc2)c(O)c([N+](=O)[O-])c1`: in [2], the logD is 5.96. Further, the “Log 1/MIC” value in series [3] turned out to be 6.02. In series [4] (octanol/buffer, read-out: logP), the logP was 7.56. The pKa in [5] came out at 5.6. This molecule also displayed an MIC in the series with Actinomyces viscosus [1] of 0.4 µg/mL (≈ 0.949 µM).
